Measured values taken from paper PMC10414583, “Structures of SARS-CoV-2 N7-methyltransferase with DOT1L and PRMT7 inhibitors provide a platform for new antivirals” (PLOS Pathogens, 2023).

Target: T1, SARS-CoV-2 nsp14/nsp10 complex (Severe acute respiratory syndrome coronavirus 2, UniProt P0DTD1)
T1 construct: gene rep; full-length mature nsp14 and nsp10 cut from replicase polyprotein 1ab; co-expressed from one pRSF-Duet-1 plasmid in E. coli BL21Gold (DE3), C-terminal 6xHis; with Non-structural protein 10
Assay: biochemical
Format: binding

| SMILES | Kd [µM] |
| --- | --- |
| Nc1nc2c(ncn2[C@@H]2O[C@H](COP(=O)(O)OP(=O)(O)OP(=O)(O)OC[C@H]3O[C@@H](n4cnc5c(N)ncnc54)[C@H](O)[C@@H]3O)[C@@H](O)[C@H]2O)c(=O)[nH]1 [GpppA RNA cap analog] | 20 |
| C[S+](CC[C@H](N)C(=O)O)C[C@H]1O[C@@H](n2cnc3c(N)ncnc32)[C@H](O)[C@@H]1O (stereo partly shown) [SAM] | ~6 |
| CC(C)N(CCCNC(=O)Nc1ccc(C(C)(C)C)cc1)C[C@H]1O[C@@H](n2cc(Br)c3c(N)ncnc32)[C@H](O)[C@@H]1O [SGC0946] | ~8 |
| Nc1ncnc2c1ncn2[C@@H]1O[C@H](CSCCCCNCc2cccc(-c3ccc(Cl)cc3)c2)[C@@H](O)[C@H]1O [SGC8158] | ~6 |
